US10745346B2, “Agonists of protein tyrosine phosphatase SHP-1” (priority 2015, dated 2020)

Key:
[1] = target: Recombinant SHP-1 protein (Homo sapiens, UniProt P29350); test: SHP-1 phosphatase activity assay (RediPlate 96 EnzChek Tyrosine Phosphatase Assay kit); assay type: biochemical; conditions: SC derivatives at 1 μM for 2 hr; recombinant SHP-1 25 ng; control DMSO = 100; mean±SD (N=3)
Protocol: Effects of SC Derivatives on Phosphatase Activity in Recombinant SHP-1 RediPlate 96 EnzChek Tyrosine Phosphatase Assay kit (R-22067) was used for SHP-1 activity assay (Molecular Probes). Recombinant SHP-1 protein (25 ng) was reacted with SC derivatives at 1 μM for 2 hr. Then the SHP-1 phosphatase activity assay was performed according to the user's manual and the absorbance was measured at 465 nm. The control group was DMSO, which functioned as the solvent of the SC derivatives. The values were expressed by mean±SD (N=3).

[2] = test system: PLC5 cells (a hepatocellular carcinoma cell line); test: Cytotoxicity, MTT cell viability assay; assay type: cell-based; conditions: 72 h exposure
Protocol: PLC5 cells (a hepatocellular carcinoma cell line) were seeded at 5×10^3 cells per well in 96-well plates. Then, cells were exposed to SC derivatives at the indicated doses for 72 h. After that, cells were incubated with MTT (1 mg/ml) (Sigma-Aldrich, St. Louis, Mo.) for 2 h at 37° C. Cell viability was then assessed by measuring the absorbance at 570 nm using a microplate reader.

Recombinant SHP-1 protein, sequence (P29350 whole entry): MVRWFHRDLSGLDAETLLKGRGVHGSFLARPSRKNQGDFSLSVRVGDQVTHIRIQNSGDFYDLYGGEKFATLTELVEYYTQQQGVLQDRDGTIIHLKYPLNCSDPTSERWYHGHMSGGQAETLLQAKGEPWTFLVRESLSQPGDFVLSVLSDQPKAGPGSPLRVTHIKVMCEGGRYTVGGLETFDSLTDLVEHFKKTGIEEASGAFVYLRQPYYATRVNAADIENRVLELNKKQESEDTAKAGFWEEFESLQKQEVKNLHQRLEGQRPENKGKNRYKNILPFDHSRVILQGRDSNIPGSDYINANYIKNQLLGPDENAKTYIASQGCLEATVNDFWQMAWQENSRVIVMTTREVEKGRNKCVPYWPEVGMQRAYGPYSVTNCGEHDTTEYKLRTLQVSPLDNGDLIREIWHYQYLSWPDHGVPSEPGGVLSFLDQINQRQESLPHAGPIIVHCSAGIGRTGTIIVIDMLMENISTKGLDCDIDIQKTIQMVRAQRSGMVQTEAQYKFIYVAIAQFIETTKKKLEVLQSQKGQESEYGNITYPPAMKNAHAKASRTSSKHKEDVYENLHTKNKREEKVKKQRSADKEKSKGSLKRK

| SMILES | SHP-1 Activity (% of control) [1] | IC50 [2] [nM] |
| --- | --- | --- |
| N#Cc1ccc(Oc2ccc3c(c2)N(C(=O)Nc2ccc(Cl)c(C(F)(F)F)c2)CCO3)cc1 [compound 157, N-(4-chloro-3-(trifluoromethyl)phenyl)-6-(4-cyanophenoxy)-2H-benzo[b][1,4]oxazine-4(3H)-carboxamide] | 106.27 ± 6.28 % of control | 1760 |
| N#Cc1ccc(Oc2ccc(F)c(NC(=O)Nc3ccc(Cl)c(C(F)(F)F)c3)c2)cc1 [compound 105, 1-(4-chloro-3-(trifluoromethyl)phenyl)-3-(5-(4-cyanophenoxy)-2-fluorophenyl)urea] | 424.63 ± 10.66 % of control | 470 |
| N#Cc1ccc(Oc2ccc(Cl)c(NC(=O)Nc3cc(C(F)(F)F)cc(C(F)(F)F)c3)c2)cc1 [compound 141, 1-(3,5-bis(trifluoromethyl)phenyl)-3-(2-chloro-5-(4-cyanophenoxy)phenyl) urea] | 273.26 ± 86.35 % of control | 280 |
| Cc1ccc(NC(=O)Nc2ccc(C)c(Oc3ccc(C#N)c(Br)c3)c2)cc1Oc1ccc(C#N)c(Br)c1 [compound 83, 1,3-bis(3-(3-bromo-4-cyanophenoxy)-4-methylphenyl)urea] | 110.68 ± 13.38 % of control | 250 |
| N#Cc1ccc(Oc2cc(NC(=O)Nc3ccc(Cl)c(Oc4ccc(C#N)cc4)c3)ccc2Cl)cc1 [compound 92, 1,3-bis(4-chloro-3-(4-cyanophenoxy)phenyl)urea] | 252.27 ± 10.78 % of control | > 10000 |
| Cc1ccc(NC(=O)Nc2ccc(C)c(Oc3cnc(C#N)c(F)c3)c2)cc1Oc1cnc(C#N)c(F)c1 [compound 104, 1,3-bis(3-((6-cyano-5-fluoropyridin-3-yl)oxy)-4-methylphenyl)urea] | 139.74 ± 4.92 % of control | > 10000 |
| C#Cc1cccc(NC(=O)Nc2ccc(F)c(Oc3ccc(C#N)cc3)c2)c1 [compound 150, 1-(3-(4-cyanophenoxy)-4-fluorophenyl)-3-(3-ethynylphenyl)urea] | 129.59 ± 59 % of control | 2230 |
| N#Cc1ccc(Oc2ccc3c(c2)N(C(=O)Nc2cc(C(F)(F)F)cc(C(F)(F)F)c2)CCO3)cc1 [compound 158, N-(3,5-bis(trifluoromethyl)phenyl)-6-(4-cyanophenoxy)-2H-benzo[b][1,4]oxazine-4(3H)-carboxamide] | 102.07 ± 3.47 % of control | 3310 |
| Cc1ccc(NC(=O)Nc2ccc(F)c(C(F)(F)F)c2)cc1Oc1ccc(C#N)cc1 [compound 132, 1-(3-(4-cyanophenoxy)-4-methylphenyl)-3-(4-fluoro-3-(trifluoromethyl)phenyl)urea] | 151.59 ± 9.68 % of control | 640 |
| Cc1cc(Oc2cc(NC(=O)Nc3cc(C(F)(F)F)cc(C(F)(F)F)c3)ccc2Cl)ccc1C#N [compound 176, 1-(3,5-bis(trifluoromethyl)phenyl)-3-(4-chloro-3-(4-cyano-3-methylphenoxy)phenyl)urea] | 112.57 ± 3.69 % of control | 650 |
| N#Cc1ccc(Oc2ccc(F)c(NC(=O)Nc3ccc(F)c(C(F)(F)F)c3)c2)cc1 [compound 145, 1-(5-(4-cyanophenoxy)-2-fluorophenyl)-3-(4-fluoro-3-(trifluoromethyl)phenyl)urea] | 168.15 ± 1.97 % of control | 850 |
| N#Cc1ccc(Oc2cccc(NC(=O)C3(C(=O)Nc4cccc(Oc5ccc(C#N)cc5)c4)CC3)c2)cc1 [compound 67, N, N′-bis(3-(4-cyanophenoxy)phenyl)cyclopropane-1,1-dicarboxamide] | 94.05 ± 16.11 % of control | > 10000 |
| C#Cc1cccc(NC(=O)N2CCOc3ccc(Oc4ccc(C#N)cc4)cc32)c1 [compound 161, 6-(4-cyanophenoxy)-N-(3-ethynylphenyl)-2H-benzo[b][1,4]oxazine-4(3H)-carboxamide] | 140.58 ± 11.39 % of control | > 10000 |
| Cc1cc(Oc2cc(NC(=O)Nc3cccc(C(F)(F)F)c3)ccc2Cl)ccc1C#N [compound 174, 1-(4-chloro-3-(4-cyano-3-methylphenoxy)phenyl)-3-(3-(trifluoromethyl)phenyl)urea] | 203.95 ± 30.20 % of control | 1460 |
| N#CCc1ccc(Oc2ccc(NC(=O)Nc3cccc(C(F)(F)F)c3)cc2)cc1 [compound 173, 1-(4-(4-(cyanomethyl)phenoxy)phenyl)-3-(3-(trifluoromethyl)phenyl)urea] | 110.75 ± 1.18 % of control | > 10000 |
| N#Cc1ccc(Oc2ccc3c(c2)OCCN3C(=O)Nc2cccc(C(F)(F)F)c2)cc1 [compound 163, 7-(4-cyanophenoxy)-N-(3-(trifluoromethyl)phenyl)-2H-benzo[b][1,4]oxazine-4(3H)-carboxamide] | 142.36 ± 2.16 % of control | 2510 |
| N#Cc1ccc(Oc2ccc(NC(=O)Nc3ccc(Cl)c(C(F)(F)F)c3)c(F)c2)cc1 [compound 96, 1-(4-chloro-3-(trifluoromethyl)phenyl)-3-(4-(4-cyanophenoxy)-2-fluorophenyl)urea] | 194.52 ± 17.89 % of control | 410 |
| N#CCc1ccc(NC(=O)Nc2ccc(Cl)c(Oc3ccc(C#N)cc3)c2)cc1 [compound 149, 1-(4-chloro-3-(4-cyanophenoxy)phenyl)-3-(4-(cyanomethyl)phenyl)urea] | 140.90 ± 6.65 % of control | 1380 |
| Cc1cc(Oc2cc(NC(=O)Nc3ccc(Cl)c(C(F)(F)F)c3)ccc2Cl)ccc1C#N [compound 175, 1-(4-chloro-3-(4-cyano-3-methylphenoxy)phenyl)-3-(4-chloro-3-(trifluoromethyl)phenyl)urea] | 233.37 ± 36.5 % of control | 1200 |
| Cc1cc(Oc2cc(NC(=O)Nc3ccc(F)c(C(F)(F)F)c3)ccc2Cl)ccc1C#N [compound 177, 1-(4-chloro-3-(4-cyano-3-methylphenoxy)phenyl)-3-(4-fluoro-3-(trifluoromethyl)phenyl)urea] | 103.52 ± 1.13 % of control | > 10000 |
| N#Cc1ccc(Oc2cc(NC(=O)Nc3ccc(F)c(C(F)(F)F)c3)ccc2F)cc1 [compound 154, 1-(3-(4-cyanophenoxy)-4-fluorophenyl)-3-(4-fluoro-3-(trifluoromethyl)phenyl)urea] | 115.12 ± 3.84 % of control | 620 |
| N#CCc1ccc(Oc2ccc(NC(=O)Nc3ccc(F)c(C(F)(F)F)c3)cc2)cc1 [compound 168, 1-(4-(4-(cyanomethyl)phenoxy)phenyl)-3-(4-fluoro-3-(trifluoromethyl)phenyl)urea] | 147.25 ± 78.63 % of control | 1070 |
| N#Cc1ccc(Oc2cc(NC(=O)Nc3ccc(F)c(C(F)(F)F)c3)ccc2Cl)cc1 [compound 137, 1-(4-chloro-3-(4-cyanophenoxy)phenyl)-3-(4-fluoro-3-(trifluoromethyl)phenyl)urea] | 180.35 ± 35 % of control | 490 |
| N#Cc1ccc(Oc2cccc(NC(=O)Nc3ccc(Cl)c(C(F)(F)F)c3)c2)cc1Cl [compound 79, 1-(4-chloro-3-(trifluoromethyl)phenyl)-3-(3-(3-chloro-4-cyanophenoxy)phenyl)urea] | 112.25 ± 0.60 % of control | 820 |
